Values quoted from earlier work as cited in patent publication US6959708B1, “Method for co-application of gases and drugs to potentiate their action in relieving headaches, angina and other ailments” (Capnia, Incorporated, priority 1999, dated 2005).
Like-named read-outs stand apart in the source and are kept apart here.

Legend:
[1] = tested on: central and peripheral airways; conditions: asthmatic adults
[2] = tested on: serotonin-induced bronchial smooth muscle contraction
[3] = tested on: transpulmonary gradient and pulmonary vascular resistance; conditions: inhaled low dose
pulmonary hypertension = conditions: in vivo
[4] = co-application of a 10% CO2 concentration
[5] = drug alone, without CO2 co-application

Compound	inhibition of serotonin-induced bronchial smooth muscle contraction [2, 4] [%]	inhibition of serotonin-induced bronchial smooth muscle contraction [2, 5] [%]	also measured
O=C=O [CO2, carbon dioxide]	–	–	effect on airways [1]: relax both central and peripheral airways
CN1[C@@H]2CC[C@H]1C[C@@H](OC(=O)C(CO)c1ccccc1)C2 (some centres unmarked) [atropine]	62	46	–
C[N+](C)(C)CCCCCC[N+](C)(C)C [hexamethonium]	67	37	–
nitric oxide [NO]	–	–	pulmonary vasoselectivity [3]: highly pulmonary vasoselective; reduction of transpulmonary gradient and pulmonary vascular resistance compared with sodium nitroprusside and prostacyclin ([3]; in vivo and clinical tests): as effective as sodium nitroprusside and prostacyclin; effect on pulmonary hypertension (pulmonary hypertension): reverse pulmonary hypertension
